Assays:
[1] = Half life in human hepatocytes; assay type: ADME, cell-based, Hepatocyte
[2] = Inhibition of recombinant rat mPGES-1 using PGH2 as substrate incubated 20 mins prior to substrate addition measured after 30 secs by EIA
[3] = biological target: T1, Prostaglandin G/H synthase 2 (Homo sapiens, UniProt P35354); test: Inhibition of COX2 in human fetal fibroblast assessed as SnCl2-induced PGF2alpha production after 40 mins by ELISA
T1 sequence (P35354 whole entry): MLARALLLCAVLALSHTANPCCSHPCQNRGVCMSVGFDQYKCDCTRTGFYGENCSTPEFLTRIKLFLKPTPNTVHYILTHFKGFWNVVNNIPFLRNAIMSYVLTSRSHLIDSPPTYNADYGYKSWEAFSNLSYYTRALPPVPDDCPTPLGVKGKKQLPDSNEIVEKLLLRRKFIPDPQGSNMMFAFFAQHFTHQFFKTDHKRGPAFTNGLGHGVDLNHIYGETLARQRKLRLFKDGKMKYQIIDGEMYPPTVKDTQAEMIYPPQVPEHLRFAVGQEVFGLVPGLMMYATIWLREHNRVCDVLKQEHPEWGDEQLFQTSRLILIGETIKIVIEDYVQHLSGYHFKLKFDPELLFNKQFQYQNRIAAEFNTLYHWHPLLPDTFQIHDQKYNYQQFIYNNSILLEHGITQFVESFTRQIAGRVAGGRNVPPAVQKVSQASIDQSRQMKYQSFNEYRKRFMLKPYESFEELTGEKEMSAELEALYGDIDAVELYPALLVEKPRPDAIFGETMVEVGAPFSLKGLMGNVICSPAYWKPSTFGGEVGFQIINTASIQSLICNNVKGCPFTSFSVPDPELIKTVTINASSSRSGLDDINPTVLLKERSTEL

[4] = biological target: Hematopoietic prostaglandin D synthase (Homo sapiens, UniProt O60760); test: Inhibition of human PGDS
Hematopoietic prostaglandin D synthase, sequence (O60760 whole entry): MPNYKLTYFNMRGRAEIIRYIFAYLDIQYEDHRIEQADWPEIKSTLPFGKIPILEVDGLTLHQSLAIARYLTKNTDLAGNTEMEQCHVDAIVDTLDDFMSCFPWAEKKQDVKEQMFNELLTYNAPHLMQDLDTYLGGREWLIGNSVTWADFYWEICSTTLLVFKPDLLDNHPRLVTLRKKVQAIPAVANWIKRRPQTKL

[5] = Tmax in dog at 0.5 mg/kg, po; assay type: ADME, organism-based, Canis lupus familiaris; parameters: dose 0.5 mg/kg, route oral; conditions: in vivo
[6] = Oral bioavailability in dog at 0.5; assay type: ADME, organism-based, Canis lupus familiaris; conditions: in vivo
[7] = Half life in dog at 0.25 mg/kg, iv; assay type: ADME, organism-based, Canis lupus familiaris; parameters: dose 0.25 mg/kg, route intravenous; conditions: in vivo
[8] = Cmax in dog at 0.5 mg/kg, po; assay type: ADME, organism-based, Canis lupus familiaris; parameters: dose 0.5 mg/kg, route oral; conditions: in vivo
[9] = Volume of distribution at steady state in dog at 0.25 mg/kg, iv; assay type: ADME, organism-based, Canis lupus familiaris; parameters: dose 0.25 mg/kg, route intravenous; conditions: in vivo, read-out: Vdss
[10] = Mean residence time in dog at 0.25 mg/kg, iv; assay type: ADME, organism-based, Canis lupus familiaris; parameters: dose 0.25 mg/kg, route intravenous; conditions: in vivo
[11] = Plasma protein binding in rat; assay type: ADME, cell-free; conditions: read-out: PPB (converted)
[12] = Half life in human liver microsomes; assay type: ADME, Microsome
[13] = Half life in rat liver microsomes; assay type: ADME, Microsome
[14] = Permeability of the compound by pampa; assay type: ADME; conditions: read-out: permeability
[15] = Plasma protein binding in human; assay type: ADME, cell-free; conditions: read-out: PPB (converted)
Prostaglandin E synthase = biological target: T2, Prostaglandin E synthase (Homo sapiens, UniProt O14684); test: Inhibition of human recombinant mPGES-1 using PGH2 as substrate incubated 20 mins prior to substrate addition measured after 30 secs by EIA
T2 sequence (O14684 whole entry): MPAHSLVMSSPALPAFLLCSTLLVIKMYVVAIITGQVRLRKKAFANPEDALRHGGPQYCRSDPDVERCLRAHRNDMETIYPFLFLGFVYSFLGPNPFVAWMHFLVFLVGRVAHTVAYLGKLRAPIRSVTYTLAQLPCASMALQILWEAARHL

[16] = Inhibition of rat mPGES-1 transfected in CHOK1 cells using [3H]PGH2 as substrate; assay type: cell-based; conditions: cho-k1

Row | SMILES | IC50 (Prostaglandin E synthase) [µM] | other results
1 | O=C(N[C@H]1CCC[C@@H]1OCc1ccccc1)C1CCN(c2nc3cc(Cl)ccc3o2)CC1 |  | half-life [1]: 80 min; IC50 [2]: > 10 µM; IC50 [3]: > 100 µM; IC50 [4]: > 10 µM; Tmax [5]: 30 min; bioavailability [6]: 55%; half-life [7]: 432 min; Cmax [8]: 1300 nM; Vd [9]: 1 L/kg; MRT [10]: 486 min; fraction unbound [11]: 0.02; half-life [12]: 10.8 min; half-life [13]: 7.2 min; Papp [14]: 1.3 ×10⁻⁶ cm/s
2 | O=C(N[C@H]1CCC[C@@H]1COc1ccccc1)C1CCN(c2nc3cc(Cl)ccc3o2)CC1 | 0.034 | fraction unbound [15]: < 0.01
3 | O=C(N[C@@H]1CCC[C@@H]1COc1ccccc1)C1CCN(c2nc3cc(Cl)ccc3o2)CC1 | 0.0431 | 
4 | O=C(N[C@H]1CCC[C@@H]1CO)C1CCN(c2nc3cc(Cl)ccc3o2)CC1 | 3.2 | 
5 | O=C(N[C@@H]1CCC[C@@H]1CO)C1CCN(c2nc3cc(Cl)ccc3o2)CC1 | 0.785 | 
6 | O=C(N[C@@H]1CCC[C@H]1OCC1CCCC1)C1CCN(c2nc3cc(Cl)ccc3o2)CC1 | 0.176 | 
7 | CO[C@@H]1CCC[C@H]1NC(=O)C1CCN(c2nc3cc(Cl)ccc3o2)CC1 | 8.15 | 
8 | CCCCO[C@@H]1CCC[C@H]1NC(=O)C1CCN(c2nc3cc(Cl)ccc3o2)CC1 | 0.826 | 
9 | O=C(NC1CCCC1C(=O)O)C1CCN(c2nc3cc(Cl)ccc3o2)CC1 (stereo unspecified) | 7.18 | 
10 | O=C(NC1CCCC1c1ccccc1)C1CCN(c2nc3cc(Cl)ccc3o2)CC1 (stereo unspecified) | 0.291 | 
11 | CC1CCCC1NC(=O)C1CCN(c2nc3cc(Cl)ccc3o2)CC1 (stereo unspecified) | 0.242 | 
12 | O=C(NC1CCCCCC1)C1CCN(c2nc3cc(Cl)ccc3o2)CC1 | 0.821 | 
13 | O=C(NC1CCC1)C1CCN(c2nc3cc(Cl)ccc3o2)CC1 | 3.01 | 
14 | CN(C(=O)C1CCN(c2nc3cc(Cl)ccc3o2)CC1)C1CCCC1 | > 30 | 
15 | O=C(NC1CCCC1)N1CCCN(c2nc3cc(Cl)ccc3o2)CC1 | 12.9 | 
16 | O=C(NC1CCCC1)N1CCN(c2nc3cc(Cl)ccc3o2)CC1 | > 10 | 
17 | O=S(=O)(NC1CCCC1)C1CCN(c2nc3cc(Cl)ccc3o2)CC1 | > 10 | 
18 | O=C(CCCNc1nc2cc(Cl)ccc2o1)NC1CCCC1 | > 10 | 
19 | CSCCNC(=O)C1CCN(c2nc3cc(Cl)ccc3o2)CC1 | 1.2 | 
20 | O=C(NC1CCCC1)C1CCN(c2nc3cc(Cl)ccc3o2)CC1 |  | fraction unbound [15]: 0.005; IC50 [3]: > 100 µM
21 | CC(C)c1ccc2c(c1)c(SC(C)(C)C)c(CC(C)(C)C(=O)O)n2Cc1ccc(Cl)cc1 |  | IC50 [16]: 8.2 µM

Source: ChEMBL document CHEMBL2311506, “Novel benzoxazole inhibitors of mPGES-1” (Bioorg Med Chem Lett, 2013)
